From PMC5010537, “Purification and characterization of laccase from Marasmius species BBKAV79 and effective decolorization of selected textile dyes” (3 Biotech, 2016)

System: T1, laccase from Marasmius sp. BBKAV79
T1 construct: gene benzenediol:oxygen oxidoreductase; native extracellular enzyme purified from culture supernatant (ammonium sulfate, Sephadex G-100, DEAE-cellulose); monomer, ~75 kDa by native PAGE
Assay: absorbance at […] nm, Lineweaver-Burk plot
Format: biochemical
Conditions: 100 mM sodium acetate buffer pH 5.5; guaiacol 0.18-10 mM; free enzyme
From the text: BBKAV79 | K m and V max of purified laccase from Marasmius sp.

Km: 3.03 mM
SMILES: COc1ccccc1O [guaiacol]
